Assay results published in patent publication US7494997B2, “Amide derivative” (Nippon Shinyaku Co., Ltd., priority 2002, dated 2009).

Key:
U937 cells = test: Cell growth inhibitory effect, U937 cells (WST-8, 72 hours); conditions: Homo sapiens, U-937, 72 h, read-out: U937 cells (IC50 value: μM)
K562 cells = test: Cell growth inhibitory effect, K562 cells (WST-8, 72 hours); conditions: for IC50: Homo sapiens, K562, 72 h, read-out: K562 cells (IC50 value: μM); for Ratio (U937 cells/K562 cells): ratio of IC50 values U937 cells/K562 cells
E255K mutant BCR-ABL = target: T1, E255K mutant BCR-ABL (Homo sapiens, UniProt P00519, E255K); test: Self-phosphorylation inhibitory effect on mutant (E255K) BCR-ABL in transfected 293T cells (Western blot, PY99); type: cell-based; conditions: 2 hours
T1 construct: expressed in transfected cells; host or cells: 293T cells (ATCC), Lipofectamine transfection; the other entry of the earlier key: BCR (P11274, Breakpoint cluster region protein)
T1 sequence (P00519 28-1130 E255K limits assumed): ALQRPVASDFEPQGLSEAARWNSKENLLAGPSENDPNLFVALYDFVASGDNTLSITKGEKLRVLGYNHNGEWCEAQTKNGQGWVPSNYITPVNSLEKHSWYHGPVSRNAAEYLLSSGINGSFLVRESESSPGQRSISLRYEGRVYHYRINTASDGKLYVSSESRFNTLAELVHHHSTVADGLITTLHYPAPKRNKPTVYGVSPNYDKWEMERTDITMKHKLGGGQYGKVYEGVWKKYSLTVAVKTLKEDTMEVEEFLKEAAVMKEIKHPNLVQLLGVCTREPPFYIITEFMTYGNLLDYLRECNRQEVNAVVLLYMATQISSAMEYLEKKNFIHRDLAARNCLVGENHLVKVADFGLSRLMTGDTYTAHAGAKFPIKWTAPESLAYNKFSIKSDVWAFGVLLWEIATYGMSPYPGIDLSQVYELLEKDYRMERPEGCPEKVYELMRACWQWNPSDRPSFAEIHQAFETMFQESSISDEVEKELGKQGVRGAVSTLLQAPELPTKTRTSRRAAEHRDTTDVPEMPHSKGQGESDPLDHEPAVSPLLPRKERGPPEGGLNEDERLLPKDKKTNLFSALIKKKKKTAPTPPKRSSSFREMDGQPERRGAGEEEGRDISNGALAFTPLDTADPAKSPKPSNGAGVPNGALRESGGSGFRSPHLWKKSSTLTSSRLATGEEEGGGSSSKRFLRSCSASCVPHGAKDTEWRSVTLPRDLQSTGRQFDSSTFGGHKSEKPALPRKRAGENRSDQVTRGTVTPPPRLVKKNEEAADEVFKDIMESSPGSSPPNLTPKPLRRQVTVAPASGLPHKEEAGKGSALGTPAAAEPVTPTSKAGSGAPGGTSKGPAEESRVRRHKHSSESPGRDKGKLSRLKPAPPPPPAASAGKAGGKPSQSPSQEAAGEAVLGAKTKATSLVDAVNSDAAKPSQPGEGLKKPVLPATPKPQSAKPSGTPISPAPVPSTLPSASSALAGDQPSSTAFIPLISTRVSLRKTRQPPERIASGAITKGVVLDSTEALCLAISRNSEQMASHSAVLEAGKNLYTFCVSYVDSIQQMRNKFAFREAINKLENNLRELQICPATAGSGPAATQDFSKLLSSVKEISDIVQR
Description: The cells were seeded in an amount of 5 ml in a Poly-L-Lysin coated 6 cm dish so as to give 1.2×10^6 cells/well. […] Using a Lipofectamine reagent (manufactured by Invitrogen), 2 μg of E255K mutant bcr-abl gene expression vector was transfected into the cell. […] The dish was incubated in a CO2 incubator for 2 hours. After treatment with trypsin, the cells were collected into a 15 ml centrifuge tube. The tube was centrifuged at 1000 rpm at room temperature for one minute. After removal of the medium, 50 μl of a cell lysis solution was added. The cells were subjected to cytolysis with a mixer. The tube was left to stand at 4° C. for 15 minutes and transferred to 1.5 ml tube. The tube was centrifuged at 12,000 rpm at 4° C. for 15 minutes. The cell lysate was collected into another 1.5 ml tube. The concentration of protein was measured according to BCA method. The samples of cell lysate containing […] of protein was analyzed by SDS-PAGE polyacrylamide. After electrophoresis, the protein was transferred onto a nylon filter (Hybond-P) with wet method at 4° C. overnight. The nylon filter was reacted in 10 ml of PBS/0.1% Tween-20 containing 0.2 μg/ml anti-phosphorylation tyrosin kinase antibody (PY99) (manufactured by Toyobo) at room temperature for one hour. The nylon filter was washed with PBS three times and then reacted 10 ml of PBS/0.1% Tween-20 containing 0.4 μg/ml Anti-mouse IgG AP-conjugated (manufactured by Cell Signaling) at room temperature for one hour. After the nylon filter was washed with PBS four times, self-phosphorylation of p210 BCR-ABL was detected with alkaline phosphatase color developing reagent.
The results are shown as follows: +++: almost perfectly inhibition of phosphorylation; ++: around half of inhibition; +: week inhibition; and −: no inhibition.

SMILES	IC50 (U937 cells)	IC50 (K562 cells)	Ratio (U937 cells/K562 cells) (K562 cells)	melting point	Self-phosphorylation inhibitory effect on E255K mutant BCR-ABL (E255K mutant BCR-ABL; 0.1 μM)	Self-phosphorylation inhibitory effect on E255K mutant BCR-ABL (E255K mutant BCR-ABL; 0.3 μM)	Self-phosphorylation inhibitory effect on E255K mutant BCR-ABL (E255K mutant BCR-ABL; 1 μM)	Self-phosphorylation inhibitory effect on E255K mutant BCR-ABL (E255K mutant BCR-ABL; 3 μM)	Self-phosphorylation inhibitory effect on E255K mutant BCR-ABL (E255K mutant BCR-ABL; 10 μM)
Cc1ccc(NC(=O)c2ccc(CN3CCN(C)CC3)c(C(F)(F)F)c2)cc1Nc1nccc(-c2cncc(Br)c2)n1 [Example 10, 4-(4-methylpiperazin-1-ylmethyl)-3-trifluoromethyl-N-{3-[4-(5-bromopyridin-3-yl)pyrimidin-2-ylamino]-4-methylphenyl}benzamide]	3.27 µM	0.0014 µM	2335.7	171 to 173 °C (dec.)	−	−	++	+++	+++
Cc1ccc(NC(=O)c2ccc(CN3CCN(C)CC3)c(Br)c2)cc1Nc1nccc(-c2cncnc2)n1 [Example 13, 3-bromo-4-(4-methylpiperazin-1-ylmethyl)-N-{4-methyl-3-[4-(5-pyrimidinyl)pyrimidin-2-ylamino]phenyl}benzamide]	6.2 µM	0.0012 µM	5166.7	238 to 240 °C (dec.)	−	+	++	+++	+++
